Data: the NIST ThermoML archive (doi:10.1016/j.jct.2019.02.011)

Assay: xn = mol fraction of the nth substance listed
Conditions: Liquid, Vibrating tube method

COC(=O)OC [dimethyl carbonate] + CO
mass density [kg/m3]
Conditions | 100 kPa | 5000 kPa | 10000 kPa | 15000 kPa | 20000 kPa | 25000 kPa | 30000 kPa | 35000 kPa | 40000 kPa
298.15 K, x1 = 0.0253 | – | – | – | – | – | 822.44 | 826.09 | 829.61 | 832.77
298.15 K, x1 = 0.0503 | – | – | – | – | – | 836.02 | 839.68 | 843.21 | 846.39
298.15 K, x1 = 0.0745 | – | – | – | – | – | 848.53 | 852.21 | 855.74 | 858.95
298.15 K, x1 = 0.101 | – | – | – | – | – | 861.5 | 865.23 | 868.78 | 872.01
298.15 K, x1 = 0.1502 | – | – | – | – | – | 883.85 | 887.6 | 891.17 | 894.43
298.15 K, x1 = 0.2059 | – | – | – | – | – | 906.93 | 910.69 | 914.23 | 917.53
298.15 K, x1 = 0.25 | – | – | – | – | – | 923.6 | 927.38 | 930.92 | 934.25
298.15 K, x1 = 0.3004 | – | – | – | – | – | 941.13 | 944.97 | 948.53 | 951.89
298.15 K, x1 = 0.3426 | – | – | – | – | – | 954.69 | 958.54 | 962.11 | 965.49
298.15 K, x1 = 0.3984 | – | – | – | – | – | 971.23 | 975.08 | 978.67 | 982.08
298.15 K, x1 = 0.4514 | – | – | – | – | – | 985.66 | 989.52 | 993.12 | 996.55
298.15 K, x1 = 0.5054 | – | – | – | – | – | 999.17 | 1003.04 | 1006.64 | 1010.1
298.15 K, x1 = 0.5509 | – | – | – | – | 1005.74 | 1009.72 | 1013.59 | 1017.21 | 1020.68
298.15 K, x1 = 0.6002 | – | – | – | – | 1016.28 | 1020.27 | 1024.16 | 1027.78 | 1031.27
298.15 K, x1 = 0.6469 | – | – | – | – | 1025.6 | 1029.6 | 1033.49 | 1037.12 | 1040.63
298.15 K, x1 = 0.6993 | – | – | – | – | 1035.37 | 1039.38 | 1043.27 | 1046.86 | 1050.38
298.15 K, x1 = 0.7496 | – | – | – | – | 1044.11 | 1048.12 | 1052.02 | 1055.62 | 1059.15
298.15 K, x1 = 0.799 | – | – | – | – | 1052.15 | 1056.12 | 1060.03 | 1063.63 | 1067.18
298.15 K, x1 = 0.837 | – | – | – | – | 1058.02 | 1061.99 | 1065.9 | 1069.51 | 1073.07
298.15 K, x1 = 0.9093 | – | – | – | – | 1068.61 | 1072.59 | 1076.46 | 1080.07 | 1083.65
298.15 K, x1 = 0.9239 | – | – | – | – | 1070.65 | 1074.63 | 1078.5 | 1082.11 | 1085.7
298.15 K, x1 = 0.9575 | – | – | – | – | 1075.22 | 1079.21 | 1083.09 | 1086.7 | 1090.29
298.15 K, x1 = 0.9861 | – | – | – | – | 1079.06 | 1083.05 | 1086.92 | 1090.54 | 1094.14
298.15 K, x1 = 1 | – | – | – | – | 1080.9 | 1084.89 | 1088.82 | 1092.44 | 1096.04
303.15 K, x1 = 0.0253 | 796.3 | 801.03 | 805.57 | 810.1 | 814.43 | 818.36 | 822.05 | – | –
303.15 K, x1 = 0.0503 | 809.73 | 814.5 | 819.05 | 823.59 | 827.93 | 831.86 | 835.56 | – | –
303.15 K, x1 = 0.0745 | 822.09 | 826.87 | 831.44 | 835.97 | 840.32 | 844.26 | 848.02 | – | –
303.15 K, x1 = 0.101 | 834.96 | 839.75 | 844.32 | 848.86 | 853.22 | 857.21 | 860.97 | – | –
303.15 K, x1 = 0.1502 | 857.02 | 861.81 | 866.4 | 870.99 | 875.37 | 879.38 | 883.14 | – | –
303.15 K, x1 = 0.2059 | 879.85 | 884.65 | 889.26 | 893.85 | 898.26 | 902.32 | 906.14 | – | –
303.15 K, x1 = 0.25 | 896.36 | 901.21 | 905.83 | 910.43 | 914.79 | 918.87 | 922.69 | – | –
303.15 K, x1 = 0.3004 | 913.71 | 918.57 | 923.21 | 927.81 | 932.19 | 936.27 | 940.09 | – | –
303.15 K, x1 = 0.3426 | 927.12 | 931.98 | 936.63 | 941.23 | 945.62 | 949.71 | 953.54 | – | –
303.15 K, x1 = 0.3984 | 943.53 | 948.4 | 953.06 | 957.62 | 962.02 | 966.12 | 969.95 | – | –
303.15 K, x1 = 0.4514 | 957.9 | 962.78 | 967.4 | 971.96 | 976.32 | 980.43 | 984.26 | – | –
303.15 K, x1 = 0.5054 | 971.35 | 976.23 | 980.81 | 985.37 | 989.75 | 993.91 | 997.75 | – | –
303.15 K, x1 = 0.5509 | 981.85 | 986.74 | 991.33 | 995.89 | 1000.23 | 1004.39 | 1008.28 | – | –
303.15 K, x1 = 0.6002 | 992.37 | 997.25 | 1001.85 | 1006.41 | 1010.76 | 1014.93 | 1018.82 | – | –
303.15 K, x1 = 0.6469 | 1001.6 | 1006.49 | 1011.1 | 1015.61 | 1019.97 | 1024.14 | 1028.04 | – | –
303.15 K, x1 = 0.6993 | 1011.29 | 1016.13 | 1020.75 | 1025.26 | 1029.62 | 1033.8 | 1037.7 | – | –
303.15 K, x1 = 0.7496 | 1019.99 | 1024.84 | 1029.41 | 1033.93 | 1038.25 | 1042.43 | 1046.33 | – | –
303.15 K, x1 = 0.799 | 1028.01 | 1032.86 | 1037.44 | 1041.96 | 1046.28 | 1050.47 | 1054.37 | – | –
303.15 K, x1 = 0.837 | 1033.85 | 1038.71 | 1043.24 | 1047.76 | 1052.09 | 1056.23 | – | – | –
303.15 K, x1 = 0.9093 | 1044.36 | 1049.21 | 1053.76 | 1058.22 | 1062.51 | 1066.71 | – | – | –
303.15 K, x1 = 0.9239 | 1046.39 | 1051.25 | 1055.79 | 1060.26 | 1064.55 | 1068.75 | – | – | –
303.15 K, x1 = 0.9575 | 1050.95 | 1055.81 | 1060.36 | 1064.83 | 1069.12 | 1073.32 | – | – | –
303.15 K, x1 = 0.9861 | 1054.77 | 1059.63 | 1064.18 | 1068.65 | 1072.95 | 1077.15 | – | – | –
303.15 K, x1 = 1 | 1056.61 | 1061.47 | 1066.02 | 1070.49 | 1074.79 | 1078.99 | – | – | –
